For the experiment, the system named is bFGF-stimulated corneal angiogenesis. The experiment is described as follows: rabbit corneal micropocket model, single intravitreal injection. The experiment is classed as in vivo. The conditions noted are these: single (day 0) intravitreal, 100 μL, drug = 2 mg/eye; for inhibition [%] of neovascularisation area: vs saline control. As for the experimental part:
(1996). In this model angiogenesis is stimulated by implantation of Hydron pellets containing an angiogenesis stimulating cytokine like, for example, fibroblast growth factor (FGF) or vascular endothelial growth factor (VEGF) into the cornea. After implantation the active compound to be tested is administered by paralimbal intravitreal injection. Effect on neovascularisation is measured after predetermined time intervals by visual examination using a microscope, photographing and computer-assisted quantification of photographs.
The effect of intravitreal application of an αvβ3 and/or αvβ5 inhibitor was examined in rabbit corneal micropocket model as described by Shaffer R. W. (see above). As an example for an αvβ3 and/or αvβ5 inhibitor 2-(2,2-dimethylpropyloxycarboxamido)-3{3,4-dihydro-2-[N-(2-imidazoly)-carbamoylethyl]-2H-1,4-benzoxazin-3-on-6-yl}propionic acid was used in the experiment. For induction of angiogenesis Hydron pellets containing basic fibroblast growth factor (bFGF) were used. Preparation of bFGF containing implants was performed by casting Hydron [poly(hydroxyethyl)methacrylate] in specially prepared Teflon pegs that have a 2.5 mm core drilled into their surfaces. Approximately 12 μl of casting material was placed into each peg and polymerized overnight in a sterile hood, then sterilized by ultraviolet irradiation.
The experiment consisted of 10 animals; in each eye of the animals one individual pellet was implanted into a surgically created “pocket” in the mid stroma of the rabbit cornea. The surgical procedure was done under sterile technique using a Moeller-Wedel Microflex operating microscope (Haag-Streit Company, Germany) equipped with a beamsplitter and camera for photographically recording individual comeas. A 69 Beaver blade was used to create a 3 mm by 5 mm “pocket” to a depth of half the comeal thickness. The stroma was dissected peripherally using an spatula and the pellet implanted with its peripheral margin 2 mm from limbus. […] For comparison the same procedure was performed in the other 5 animals using saline only. Following implantation the eyes Were photographed and the area of neovascularisation measured after predetermined intervals.

The structures appear in SMILES notation.

With `CC(C)(C)COC(=O)NC(Cc1ccc2c(c1)NC(=O)C(CCC(=O)Nc1ncc[nH]1)O2)C(=O)O` (centres unmarked) [Drug, 2-(2,2-dimethylpropyloxycarboxamido)-3-{3,4-dihydro-2-[N-(2-imidazolyl)-carbamoylethyl]-2H-1,4-benzoxazin-3-on-6-yl}propionic acid], the “mean area [mm^2] of neovascularisation” value is listed as 1.71 mm^2 (5 days post implantation), 4.65 mm^2 (7 days post implantation), 5.10 mm^2 (10 days post implantation) and 9.94 mm^2 (14 days post implantation). The “inhibition [%] of neovascularisation area” value is 56.3% (5 days post implantation), 13.4% (7 days post implantation), 45.8% (10 days post implantation) and 40.0% (14 days post implantation).

These data come from patent US7645736B2, “Integrin inhibitors for the treatment of eye diseases” (Merck Patent GmbH, priority 2004, dated 2010).
